Laboratory results from patent publication US10329277B2, “N-(2-((2-(dimethylamino)ethyl)(methyl)amino)-4-methoxy-5-((4-(3-methyl-2-OXO-2,3-dihydro-1h-benzo[d]imidazol-1-yl)pyrimidin-2-yl)amino)phenyl)acrylamide hydrochloride as an inhibitor of epidermal growth factor receptor activity” (CHIA TAI TIANQING PHARMACEUTICAL GROUP CO., LTD., priority 2015, dated 2019).
Structures can show the parent of a compound that is named as a salt. Where two headings read alike, the source gives them in different places.

Assays:
[1] = test system: Human skin squamous carcinoma cell line A431; assay: Cell proliferation assay, A431 (soft agar, CellTiter-Blue); type: cell-based; conditions: A-431, 168 h, A431, treatment 7 days, read-out: Cell viability (IC50 nM) A431
Experimental: Human skin squamous carcinoma cell line A431 was cultured in DMEM supplemented with 10% fetal bovine serum and 1% penicillin-plus-streptomycin in a cell incubator (37° C., 5% CO2). In the tests of the compounds, the bottom substrate was at a concentration of 0.6%. Cells were re-suspended with 0.3% low-melting-point agar, and then seeded in a 96-well plate at a density of 2,000 cells per well (100 μl). The compounds were diluted at a 3-fold gradient with a starting concentration of 10 mM. 2 μl of each concentration was taken and added to 98 μl of culture medium, and then 5.3 μl of the mixture was added to the cell culture medium (final DMSO concentration being 0.1%, v/v). After treatment for one week (7 days), 20 μl of CellTiter-Blue® (Promega) reagent was added, and the plate was incubated at 37° C. for 4 hours. Fluorescence signals were read on Envison (Perkin Elmer), and IC50 values of the compound for inhibiting cell proliferation were calculated using GraphPad Prism 5.0.

[2] = test system: Human non-small cell lung cancer cells NCI-H1975; assay: Cell proliferation assay, NCI-H1975 (CellTiter-Glo); type: cell-based; conditions: NCI-H1975, treatment 72 hours, read-out: Cell viability (IC50 nM) NCI-H1975
Experimental: Human non-small cell lung cancer cells NCI-H1975 were cultured in RPIM-1640 culture medium supplemented with 10% fetal bovine serum and 1% penicillin-plus-streptomycin in a cell incubator (37° C., 5% CO2). The cells were seeded in a 96-well plate at a density of 2,000 cells per well (volume: 195 μl) and cultured overnight. On the next day, the compounds were added. In particular, the compounds were diluted at a 3-fold gradient with a starting concentration of 10 mM. 4 μl of each concentration was taken and added into 96 μl of culture medium. […] After treatment for 72 hours, the medium was aspirated and 30 μl of CellTiter-Glo® (Promega) reagent was added. Fluorescence signals were read on Envison (Perkin Elmer), and IC50 values of the compounds for inhibiting cell proliferation were calculated using GraphPad Prism 5.0.

EGFR(WT) = target: T1, EGFR(WT) (Homo sapiens, UniProt P00533); assay: In vitro enzymatic assay (HTRF), EGFR kinase; type: biochemical
T1 construct: made in house; host or cells: insect cell expression system

[3] = Pharmacokinetic assay in rats; type: in vivo; conditions: PO 10 mg/kg single dose, plasma
Experimental: Healthy adult male rats were subjected to single-dose intragastric administration of the test compounds at a dose of 10 mg/kg with 20% sulfobutyl ether-β-cyclodextrin as an excipient. Before the experiment, the animals were fasted overnight, and the fasting time last from 10 hrs prior to the administration to 4 hrs after the administration. At 0.25, 0.5, 1, 2, 4, 6, 8 and 24 hrs after the intragastric administration, blood sampling was conducted. Approximately 0.3 mL of whole blood was collected from retro-orbital venous sinus, and placed into tubes that contained heparin as an anticoagulant. The samples were centrifuged at 4° C. and 4000 rpm for 5 min. The plasma was transferred into centrifuge tubes, and stored at −80° C. till being analyzed. Concentrations of test compounds in the plasma samples were analyzed with non-validated liquid chromatography-tandem mass spectrometry (LC-MS/MS). Plasma concentration-time data of individual animals was analyzed using WinNonlin (Professional Edition, version 6.3; Pharsight Company) software. Non-compartmental model was introduced in concentration analysis. The pharmacokinetic parameters of the test compounds were calculated.

[4] = male rats, Hydrochloride, 10 mg/kg

T1 sequence (P00533 25-1210): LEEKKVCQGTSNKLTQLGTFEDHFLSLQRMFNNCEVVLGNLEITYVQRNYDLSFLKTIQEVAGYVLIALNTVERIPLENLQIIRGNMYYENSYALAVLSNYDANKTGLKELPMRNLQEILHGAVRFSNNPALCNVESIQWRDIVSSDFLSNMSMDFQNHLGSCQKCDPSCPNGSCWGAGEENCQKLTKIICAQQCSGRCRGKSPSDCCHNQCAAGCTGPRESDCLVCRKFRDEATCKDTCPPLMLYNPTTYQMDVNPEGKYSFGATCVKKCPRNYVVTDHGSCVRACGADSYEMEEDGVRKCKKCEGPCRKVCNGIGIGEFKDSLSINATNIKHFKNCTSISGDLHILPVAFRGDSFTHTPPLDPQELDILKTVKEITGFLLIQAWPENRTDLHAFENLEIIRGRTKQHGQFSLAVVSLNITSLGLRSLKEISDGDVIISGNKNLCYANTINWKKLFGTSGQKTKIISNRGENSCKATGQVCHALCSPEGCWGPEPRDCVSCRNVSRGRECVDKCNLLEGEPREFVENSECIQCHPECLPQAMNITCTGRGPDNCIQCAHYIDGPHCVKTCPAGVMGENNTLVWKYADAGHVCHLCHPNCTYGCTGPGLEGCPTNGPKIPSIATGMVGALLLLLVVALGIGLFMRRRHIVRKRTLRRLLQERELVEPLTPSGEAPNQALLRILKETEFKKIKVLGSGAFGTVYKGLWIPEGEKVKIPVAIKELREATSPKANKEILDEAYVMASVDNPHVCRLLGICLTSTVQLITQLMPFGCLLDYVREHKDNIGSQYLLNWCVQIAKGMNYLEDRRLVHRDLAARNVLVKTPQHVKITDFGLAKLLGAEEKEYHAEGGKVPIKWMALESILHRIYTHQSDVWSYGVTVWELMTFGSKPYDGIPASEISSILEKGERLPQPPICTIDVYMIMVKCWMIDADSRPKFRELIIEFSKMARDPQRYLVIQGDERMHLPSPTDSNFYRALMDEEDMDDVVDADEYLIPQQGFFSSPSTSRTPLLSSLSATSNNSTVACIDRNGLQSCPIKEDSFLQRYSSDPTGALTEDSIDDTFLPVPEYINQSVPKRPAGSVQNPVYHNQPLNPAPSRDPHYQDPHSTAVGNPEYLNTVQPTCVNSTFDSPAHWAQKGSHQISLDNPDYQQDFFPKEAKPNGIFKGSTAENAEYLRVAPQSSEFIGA

Structure (SMILES)	IC50 [2] [nM]	IC50 (EGFR(WT)) [nM]	also measured
C=CC(=O)Nc1cc(Nc2nccc(-c3cn(C)c4ccccc34)n2)c(OC)cc1N(C)CCN(C)C [AZD9291, reference compound]	9.08	–	IC50 [1]: 53.5 nM
C=CC(=O)Nc1cc(Nc2nccc(-n3c(=O)n(C)c4cc(F)ccc43)n2)c(OC)cc1N(C)CCN(C)C [Example 10, N-(2-((2-(dimethylamino)ethyl)(methyl)amino)-5-(4-(5-fluoro-3-methyl-2-oxo-2,3-dihydrobenzo[d]imidazol-1-yl)pyrimidin-2-ylamino)-4-methoxyphenyl) acrylamide Hydrochloride]	1.46	10.7	–
C=CC(=O)Nc1cc(Nc2nccc(-n3c(=O)[nH]c4ccccc43)n2)c(OC)cc1N(C)CCN(C)C [Example 2, N-(2-((2-(dimethylamino)ethyl)(methyl)amino)-4-methoxy-5-(4-(2-oxo-2,3-dihydrobenzo[d]imidazol-1-yl)pyrimidin-2-ylamino)phenyl)acrylamide Hydrochloride]	0.96	2.59	–
C=CC(=O)Nc1cc(Nc2nccc(-n3c(=O)[nH]c4cc(F)ccc43)n2)c(OC)cc1N(C)CCN(C)C [Example 11, N-(2-((2-(dimethylamino)ethyl)(methyl)amino)-5-(4-(5-fluoro-2-oxo-2,3-dihydrobenzo[d]imidazol-1-yl)pyrimidin-2-ylamino)-4-methoxyphenyl)acrylamide Hydrochloride]	3.7	2.79	–
COC/C=C/C(=O)Nc1cc(Nc2nccc(-n3c(=O)n(C)c4ccccc43)n2)c(OC)cc1N(C)CCN(C)C [Example 7, (E)-N-(2-((2-(dimethylamino)ethyl)(methyl)amino)-4-methoxy-5-(4-(3-methyl-2-oxo-2,3-dihydro-1H-benzo[d]imidazol-1-yl)pyrimidin-2-ylamino)phenyl)-4-methoxybut-2-enamide]	–	164	–
C=CC(=O)Nc1cc(Nc2nccc(-n3c(=O)n(C)c4ccccc43)n2)c(OC)cc1N(C)CCN(C)C [Example 1, N-(2-((2-(dimethylamino)ethyl)(methyl)amino)-4-methoxy-5-(4-(3-methyl-2-oxo-2,3-dihydro-1H-benzo[d]imidazol-1-yl)pyrimidin-2-ylamino)phenyl)acrylamide Hydrochloride]	2.76	9.07	Tmax ([3]; male rats): 40.2 min; AUC0-INF [3, 4]: 667 ng·h/mL; Cmax [3, 4]: 272 ng/mL; t1/2 [3, 4]: 1.12 h; IC50 [1]: 22.5 nM
C=CC(=O)Nc1cc(Nc2nccc(-n3c(=O)n(C)c4cc(Cl)ccc43)n2)c(OC)cc1N(C)CCN(C)C [Example 14, N-(5-(4-(5-chloro-3-methyl-2-oxo-2,3-dihydro-1H-benzo[d]imidazole-1-yl)pyrimidin-2-ylamino)-2-((2-(dimethylamino)ethyl)(methyl)amino)-4-methoxyphenyl) acrylamide Hydrochloride]	4.56	–	IC50 [1]: 538 nM
C=CC(=O)Nc1cc(Nc2nccc(-n3c(=O)n(C)c4ccccc43)n2)c(OC)cc1N(C)CCN(C)C [Example 13, N-(2-((2-(dimethylamino)ethyl)(methyl)amino)-4-methoxy-5-(4-(3-methyl-2-oxo-2,3-dihydro-1H-benzo[d]imidazol-1-yl)pyrimidin-2-ylamino)phenyl)acrylamide]	–	–	Cmax ([3]; male rats, 10 mg/kg): 94.4 ng/mL; t1/2 ([3]; male rats, 10 mg/kg): 2.45 h; AUC(0-inf) ([3]; male, rat, po, 10 mg/kg): 401 ng·h/mL; Tmax ([3]; rat, male rats, read-out: Tmax): 40.2 min
C=CC(=O)Nc1cc(Nc2ncc(Cl)c(-n3c(=O)[nH]c4ccccc43)n2)c(OC)cc1N(C)CCN(C)C [Example 4, N-(5-(5-chloro-4-(2-oxo-2,3-dihydro-1H-benzo[d]imidazol-1-yl)pyrimidin-2-ylamino)-2-((2-(dimethylamino)ethyl)(methyl)amino)-4-methoxyphenyl) acrylamide Hydrochloride]	2.87	20.6	–
C=CC(=O)Nc1cc(Nc2ncc(Cl)c(-n3c(=O)n(C)c4ccccc43)n2)c(OC)cc1N(C)CCN(C)C [Example 3, N-(5-(5-chloro-4-(3-methyl-2-oxo-2,3-dihydro-1H-benzo[d]imidazol-1-yl)pyrimidin-2-ylamino)-2-((2-(dimethylamino)ethyl)(methyl)amino)-4-methoxyphenyl) acrylamide Hydrochloride]	–	196	–
C=CC(=O)Nc1cc(Nc2nccc(-n3c(=O)n(C)c4ccccc43)n2)c(OC)cc1N(C)CCNC [Example 12, N-(4-methoxy-2-(methyl(2-(methylamino)ethyl)amino)-5-(4-(3-methyl-2-oxo-2,3-dihydrobenzo[d]imidazol-1-yl)pyrimidin-2-ylamino)phenyl)acrylamide Hydrochloride]	3.17	5.26	–
C=CC(=O)Nc1cc(Nc2nccc(-n3c(=O)oc4ccccc43)n2)c(OC)cc1N(C)CCN(C)C [Example 5, N-(2-((2-(dimethylamino)ethyl)(methyl)amino)-4-methoxy-5-(4-(2-oxobenzo[d]oxazol-3(2H)-yl)pyrimidin-2-ylamino)phenyl) acrylamide Hydrochloride]	17	44.9	–
C=CC(=O)Nc1cc(Nc2nccc(-n3c(=O)n(C)c4cc(Br)ccc43)n2)c(OC)cc1N(C)CCN(C)C [Example 15, N-(5-(4-(5-bromo-3-methyl-2-oxo-2,3-dihydro-1H-benzo[d]imidazole-1-yl)pyrimidin-2-ylamino)-2-((2-(dimethylamino)ethyl)(methyl)amino)-4-methoxyphenyl) acrylamide Hydrochloride]	6.83	–	IC50 [1]: 834 nM
C=CC(=O)Nc1cc(Nc2nccc(-n3c(=O)[nH]c4cc(C)ccc43)n2)c(OC)cc1N(C)CCN(C)C [Example 9, N-(2-((2-(dimethylamino)ethyl)(methyl)amino)-4-methoxy-5-(4-(5-methyl-2-oxo-2,3-dihydrobenzo[d]imidazol-1-yl)pyrimidin-2-ylamino)phenyl)acrylamide Hydrochloride]	–	3.93	–
